According to paper PMC10176470, “Engaging a Non-catalytic Cysteine Residue Drives Potent and Selective Inhibition of Caspase-6” (Journal of the American Chemical Society, 2023):

Target: proteins of HEK293T cells transiently overexpressing caspase-6 (Homo sapiens, UniProt P49591)
Type: cell-based
Details: exp_ref Probe; protein SARS (P49591); analysis C6

Chain of proteins of HEK293T cells transiently overexpressing caspase-6 (P49591 whole entry, looked up): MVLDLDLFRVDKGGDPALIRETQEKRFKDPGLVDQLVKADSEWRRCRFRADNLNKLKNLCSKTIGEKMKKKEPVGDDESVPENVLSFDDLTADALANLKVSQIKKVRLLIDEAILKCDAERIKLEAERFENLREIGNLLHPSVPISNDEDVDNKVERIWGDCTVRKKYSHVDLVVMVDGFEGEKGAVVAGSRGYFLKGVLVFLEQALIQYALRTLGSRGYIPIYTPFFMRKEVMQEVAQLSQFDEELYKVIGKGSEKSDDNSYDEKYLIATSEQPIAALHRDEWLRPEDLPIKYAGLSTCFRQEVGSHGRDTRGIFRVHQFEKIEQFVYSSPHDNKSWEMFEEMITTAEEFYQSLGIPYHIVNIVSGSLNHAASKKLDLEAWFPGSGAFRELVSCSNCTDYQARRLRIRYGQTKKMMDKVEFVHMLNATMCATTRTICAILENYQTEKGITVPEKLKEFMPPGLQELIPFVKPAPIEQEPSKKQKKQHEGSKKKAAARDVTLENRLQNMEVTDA

`C#CCOc1ccc([C@@H]2C[C@@H](C(=O)Nc3ccc(OC(F)(F)F)cc3)CN(S(=O)(=O)C=C)C2)cc1` (relative stereo) [13-t] gave an enrich.exp.med of 0.8697.
